Structures can show the parent of a compound that is named as a salt.
How the values were obtained:
[1] = Rate of biological utilization of SUN N4057 in rats; assay type: in vivo, rat
Method: Note that the rate of biological utilization of SUN N4057 in the rats, with subcutaneous administration, was a good one of about 100%, but with intraperitoneal administration, was a low one of about 27%. Further, it became clear that this quickly was consumed peaking at 15 minutes after administration. For this reason, in intraperitoneal administration, a higher dosage was set than with subcutaneous administration.

[2] = tested on: Parkinson's disease model rats; assay: Inhibition of induction of hyperkinesia of the forelimbs; assay type: in vivo, rat
Method: By repeated doses of levodopa to Parkinson's disease model rats, hyperkinesia of the forelimbs (abnormal action similar to dyskinesia in clinical studies) was observed (see FIG. 3). Therefore, it was studied whether it is possible to inhibit the induction of hyperkinesia of the forelimbs by repeated dosage of the tested substance from the start along with the start of repeated doses of levodopa.
The tested substance was intraperitoneally administered about 20 minutes before levodopa administration.

rats = assay: Forced swimming method (anti-depressive action); assay type: in vivo, rat
Text: For the test, Crl: CD(SD) male rats supplied by Charles River Japan were used (6 weeks old at start of test). For the forced swimming test, the method of the improved type reported by Lucki et al. (Lucki I., “The forced swimming test as a model for core and component behavioral effects of antidepressant drugs”, Behavioural Pharmacology, 1997, 8, p. 523-532; Cryan J. F. et al., “Assessing antidepressant activity in rodents: recent developments and future needs”, TRENDS in Pharmacological Sciences, 2002, 23, p. 238-245) was used. On day 1, each rat was placed in a cylinder filled with water (height 45 cm×diameter 30 cm, water depth 30 cm, water temperature 23° C., water depth set to depth by which back legs and tail of rat will not touch the bottom). The rat was taken out after 15 minutes. At this time, the immobility period (seconds) of minutes 10-15 (5 minutes) was recorded. Based on the results, the rats were assigned to five groups so that there would be no difference among the groups. On day 2, each rat was placed in a cylinder filled with water the same as day 1 and the immobility period (seconds), swimming behavior period (seconds), and climbing behavior period (seconds) of minutes 0-5 (5 minutes) were measured. Note that the immobility period was defined as the minimum extent of movement for the rat to hold its head above the water, the swimming behavior as the swimming behavior circling around the inside of the cylinder in the horizontal direction, and the climbing behavior as the climbing behavior moving the forelimbs in the vertical direction along the cylinder walls to try to climb them. The tested substance was intraperitoneally administered 15 minutes after the end of swimming on day 1, and 4 hours and 30 minutes before swimming on day 2. Further, for the amount of locomotor activity, a measuring system (shape 48.8×48.8×30 cm, vertical 8 fractions, horizontal 8 fractions, for total of 64 fractions, Biomedica) set in a blacked out soundproof box was used to record the amount of locomotor activity of the rats at minutes 0-15 (15 minutes). Note that the dosages and timings of administration of the tested substances were set in the same way as the forced swimming test and the substance were intraperitoneally administered 24 hours, 4 hours, and 30 minutes before measurement of the amount of locomotor activity.

[3] = target: T1, rat serotonin 1A receptors (Rattus norvegicus, UniProt P19327); assay: Adenylate cyclase inhibition test via rat serotonin 1A receptors (full agonist-partial agonist judgment test), rat hippocampus membranes; assay type: biochemical
T1 construct: Each rat was decapitated and the hippocampus was quickly removed; from tissue; host or cells: hippocampus of male Wistar rats
T1 sequence (P19327 1-422): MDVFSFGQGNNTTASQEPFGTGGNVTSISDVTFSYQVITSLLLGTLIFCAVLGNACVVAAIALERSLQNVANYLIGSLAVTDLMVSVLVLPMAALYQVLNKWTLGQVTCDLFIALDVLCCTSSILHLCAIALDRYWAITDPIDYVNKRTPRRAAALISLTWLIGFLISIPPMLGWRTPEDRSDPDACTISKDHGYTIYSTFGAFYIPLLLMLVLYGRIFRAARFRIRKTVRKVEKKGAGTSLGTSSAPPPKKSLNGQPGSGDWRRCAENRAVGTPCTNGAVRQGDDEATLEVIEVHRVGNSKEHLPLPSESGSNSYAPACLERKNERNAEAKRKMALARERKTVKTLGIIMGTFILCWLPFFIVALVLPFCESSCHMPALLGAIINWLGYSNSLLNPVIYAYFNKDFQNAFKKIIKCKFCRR
Method: For the test, Wistar male rats supplied by Shimizu Laboratory Supplies were used (9 to 15 weeks old). Each rat was decapitated and the hippocampus was quickly removed. It was homogenized in 10 volumes of buffer (i.e., 25 mM Tris-HCl, 1 mM EGTA, 5 mM EDTA, 5 mM DTT, 300 mM sucrose, 100 KIU/ml aprotinin, pH 7.4). This was then centrifuged at 500×g, 4° C. for 5 minutes, the supernatant was further centrifuged at 39,000×g, 4° C. for 10 minutes, and the residue was used as the rat hippocampus membrane specimen. The rat hippocampus membrane specimen was diluted by a buffer to 20 to 90 μg/mL of protein, then 50 μL of this cell membrane suspension was added to a 200 μL assay buffer containing each test sample (25 mM Tris-HCl, 100 mM NaCl, 2 mM MgCl2. 0.25 mM ATP, 5 mM phosphocreatine, 10 μg/mL creatine phosphokinase, 0.2 mM IBMX, 10 μM GTP, 10 μM forskolin, pH 7.4) and allowed to react at 30° C. for 5 minutes. 0.2N HCl was added in 250 μL to stop the reaction, then the cAMP produced was assayed by the radioimmunoassay method. […] Note that the adenylate cyclase activity was measured using as an indicator the amount of cAMP produced by the same enzyme. The rate of inhibition by the serotonin 1A receptor agonist was found using the amount of production due to forskolin (10 μM) stimulus as 100%.

O=C1c2ccccc2OC=C(Cl)N1CCCCN1CC=C(c2ccccn2)CC1 [SUN N4057, 3-chloro-4,5-dihydro-4-{4-[4-(2-pyridyl)-1,2,3,6-tetrahydropyridin-1-yl]butyl}-1,4-benzoxazepin-5-one.dihydrochloride-dihydrate]
rate of biological utilization ([1]; intraperitoneal administration): about 27% | time of peak after administration ([1]; intraperitoneal administration): 15 min | rate of biological utilization ([1]; subcutaneous administration): about 100% | hyperkinesia of the forelimbs compared with the results after the 3 week withdrawal period ([2]; 3 mg/kg i.p. for 3 weeks): significant inhibitory effect | appearance of hyperkinesia of the forelimbs ([2]; 3 mg/kg i.p. for 3 weeks together with the start of repeated doses of levodopa): reduced | immobility period (rats; 0.3, 1 and 3 mg/kg i.p., minutes 0-5 on day 2): significant shortening of the immobility period | swimming behavior period (rats; 1, 3 mg/kg i.p.): significant increase | IC50 ([3]; forskolin (10 μM) stimulated, rat hippocampus membranes, read-out: IC50 of adenylate cyclase inhibition (for the maximum reaction)): 2.67 nM | inhibition ([3]; forskolin (10 μM) stimulus = 100%, rat hippocampus membranes, read-out: maximum inhibitory reaction of adenylate cyclase activity): 20% | full agonist-partial agonist judgment ([3]; serotonin 1A receptors of the serotonin nerve post-synapse membrane): partial agonist
